Assay results as given in ChEMBL document CHEMBL5385895, “Design, synthesis, biological evaluation of urea substituted 1,2,5-oxadiazole-3-carboximidamides as novel indoleamine 2,3-dioxygenase-1 (IDO1) inhibitors” (Eur J Med Chem, 2023).
Activity calls are given as the source filed them. The calls are words filed in the database; no cut-off is given here.

Assays:
[1] = Cmax in Sprague-Dawley rat at 25 mg/kg, po by LC-MS/MS analysis; type: ADME, organism-based; parameters: dose 25 mg/kg, route po; details: in vivo
[2] = Toxicity in C57BL/6 mouse implanted with mouse LLC cells assessed as pathological changes in heart at 100 to 200 mg/kg, po bid treated for 21 days by H and E staining assay; type: organism-based, Lewis lung carcinoma; details: in vivo, 504 h, dose 100-200 mg/kg, time 21 day
HeLa = assay: cells; details: Homo sapiens, 24 h
[3] = Oral bioavailability in Sprague-Dawley rat at 25 mg/kg by LC-MS/MS analysis; type: ADME, organism-based; details: in vivo
HCT-116 = assay: cells; details: Homo sapiens, HCT-116, 24 h
in vitro = details: dog, MDCK
[4] = Toxicity in C57BL/6 mouse implanted with mouse LLC cells assessed as change in body weight at 100 to 200 mg/kg, po bid treated for 21 days; type: organism-based, Lewis lung carcinoma; details: in vivo, 504 h, dose 100-200 mg/kg, time 21 day
[5] = AUC (0 to t) in Sprague-Dawley rat at 25 mg/kg, po by LC-MS/MS analysis; type: ADME, organism-based; parameters: dose 25 mg/kg, route po; details: in vivo
[6] = Plasma clearance in Sprague-Dawley rat at 5 mg/kg, iv by LC-MS/MS analysis; type: ADME, organism-based
[7] = Apparent permeability of the compound across basolateral to apical side in dog MDCKII cells measured for 2 hrs by LC-MS/MS analysis; type: ADME, cell-based, Canis lupus familiaris, MDCK-II; details: MDCK
[8] = Tmax in Sprague-Dawley rat at 5 mg/kg, iv by LC-MS/MS analysis; type: ADME, organism-based; details: in vivo
[9] = molecular target: T1, Indoleamine 2,3-dioxygenase 1 (Homo sapiens, UniProt P14902); assay: Inhibition of IDO1 in IFN-gamma-induced human HeLa cells assessed as reduction in N-formylkynurenine formation using L-tryptophan as substrate preincubated for 24 hrs followed by substrate addition and measured after 30 mins by SpectraMax microplate reader analysis; type: cell-based
T1 sequence (P14902 whole entry): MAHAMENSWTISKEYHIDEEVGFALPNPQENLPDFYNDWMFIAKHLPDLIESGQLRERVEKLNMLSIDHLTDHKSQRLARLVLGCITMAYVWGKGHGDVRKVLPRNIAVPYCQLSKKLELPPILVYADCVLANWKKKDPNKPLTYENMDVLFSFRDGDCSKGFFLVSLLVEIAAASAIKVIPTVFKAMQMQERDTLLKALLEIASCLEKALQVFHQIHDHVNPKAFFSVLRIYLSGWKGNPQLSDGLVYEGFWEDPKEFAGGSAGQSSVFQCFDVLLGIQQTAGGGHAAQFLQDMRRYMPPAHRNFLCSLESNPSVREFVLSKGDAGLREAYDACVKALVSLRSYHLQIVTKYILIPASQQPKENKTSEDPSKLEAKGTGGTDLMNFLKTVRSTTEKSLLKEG

[10] = Toxicity in C57BL/6 mouse implanted with mouse LLC cells assessed as pathological changes in kidney at 100 to 200 mg/kg, po bid treated for 21 days by H and E staining assay; type: organism-based, Lewis lung carcinoma; details: in vivo, 504 h, dose 100-200 mg/kg, time 21 day
[11] = Tmax in Sprague-Dawley rat at 25 mg/kg, po by LC-MS/MS analysis; type: ADME, organism-based; details: in vivo
[12] = Anti-tumor efficacy against mouse LLC cells implanted in C57BL/6 mouse assessed as tumor growth inhibition at 100 mg/kg, po bid treated for 21 days relative to control; type: functional; details: Lewis lung carcinoma, 504 h, time 21 day, read-out: TGI
[13] = Toxicity in C57BL/6 mouse implanted with mouse LLC cells assessed as kidney function by measuring change in BUN level at 100 to 200 mg/kg, po bid treated for 21 days […]; type: organism-based, Lewis lung carcinoma; details: in vivo, 504 h, dose 100-200 mg/kg, time 21 day
[14] = molecular target: T2, Indoleamine 2,3-dioxygenase 2 (Homo sapiens) (UniProt Q6ZQW0); assay: Inhibition of human recombinant IDO2 assessed as reduction in N-formylkynurenine formation using L-tryptophan as substrate at 1 uM preincubated for 30 mins followed by substrate addition and measured after 20 mins by SpectraMax microplate reader analysis; details: time 50.0 min
T2 sequence (whole entry): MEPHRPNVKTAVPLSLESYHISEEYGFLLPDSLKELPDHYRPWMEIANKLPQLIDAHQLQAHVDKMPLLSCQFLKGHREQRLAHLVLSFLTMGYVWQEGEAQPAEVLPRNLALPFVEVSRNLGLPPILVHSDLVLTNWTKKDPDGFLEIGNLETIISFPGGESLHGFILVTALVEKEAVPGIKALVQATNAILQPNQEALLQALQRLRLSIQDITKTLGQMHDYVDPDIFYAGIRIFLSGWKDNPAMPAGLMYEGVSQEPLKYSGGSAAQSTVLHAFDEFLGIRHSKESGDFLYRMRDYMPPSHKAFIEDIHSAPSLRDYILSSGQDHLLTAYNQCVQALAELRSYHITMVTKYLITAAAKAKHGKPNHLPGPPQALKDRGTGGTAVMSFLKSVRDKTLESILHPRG

[15] = AUC (0 to infinity) in Sprague-Dawley rat at 5 mg/kg, iv by LC-MS/MS analysis; type: ADME, organism-based; parameters: dose 5 mg/kg, route iv; details: in vivo
[16] = Cmax in Sprague-Dawley rat at 5 mg/kg, iv by LC-MS/MS analysis; type: ADME, organism-based; parameters: dose 5 mg/kg, route iv; details: in vivo
[17] = AUC (0 to t) in Sprague-Dawley rat at 5 mg/kg, iv by LC-MS/MS analysis; type: ADME, organism-based; parameters: dose 5 mg/kg, route iv; details: in vivo
[18] = Toxicity in C57BL/6 mouse implanted with mouse LLC cells assessed as liver function by measuring change in ALT level at 100 to 200 mg/kg, po bid treated for 21 days […]; type: organism-based, Lewis lung carcinoma; details: in vivo, 504 h, dose 100-200 mg/kg, time 21 day
[19] = Volume of distribution in Sprague-Dawley rat at 5 mg/kg, iv by LC-MS/MS analysis; type: ADME, organism-based; details: in vivo
CT26 = assay: cells; details: Mus musculus, CT26, 24 h
[20] = molecular target: T1, Indoleamine 2,3-dioxygenase 1; assay: Inhibition of human recombinant IDO1 assessed as reduction in N-formylkynurenine formation using L-tryptophan as substrate preincubated for 30 mins followed by substrate addition and measured after 20 mins by SpectraMax microplate reader analysis
[21] = Toxicity in C57BL/6 mouse implanted with mouse LLC cells assessed as pathological changes in lung at 100 to 200 mg/kg, po bid treated for 21 days by H and E staining assay; type: organism-based, Lewis lung carcinoma; details: in vivo, 504 h, dose 100-200 mg/kg, time 21 day
[22] = Toxicity in C57BL/6 mouse implanted with mouse LLC cells assessed as mortality at 100 to 200 mg/kg, po bid treated for 21 days; type: organism-based, Lewis lung carcinoma; details: in vivo, 504 h, dose 100-200 mg/kg, time 21 day
[23] = Toxicity in C57BL/6 mouse implanted with mouse LLC cells assessed as pathological changes in liver at 100 to 200 mg/kg, po bid treated for 21 days by H and E staining assay; type: organism-based, Lewis lung carcinoma; details: in vivo, 504 h, dose 100-200 mg/kg, time 21 day
[24] = Apparent permeability of the compound across apical to basolateral side in dog MDCK-II cells measured for 2 hrs by LC-MS/MS analysis; type: ADME, cell-based, Canis lupus familiaris
[25] = molecular target: Tryptophan 2,3-dioxygenase (Homo sapiens) (UniProt P48775); assay: Inhibition of human recombinant TDO assessed as reduction in N-formylkynurenine formation using L-tryptophan as substrate at 1 uM preincubated for 30 mins followed by substrate addition and measured after 20 mins by SpectraMax microplate reader analysis; details: time 50.0 min
Chain of Tryptophan 2,3-dioxygenase (Homo sapiens) (P48775 whole entry, looked up): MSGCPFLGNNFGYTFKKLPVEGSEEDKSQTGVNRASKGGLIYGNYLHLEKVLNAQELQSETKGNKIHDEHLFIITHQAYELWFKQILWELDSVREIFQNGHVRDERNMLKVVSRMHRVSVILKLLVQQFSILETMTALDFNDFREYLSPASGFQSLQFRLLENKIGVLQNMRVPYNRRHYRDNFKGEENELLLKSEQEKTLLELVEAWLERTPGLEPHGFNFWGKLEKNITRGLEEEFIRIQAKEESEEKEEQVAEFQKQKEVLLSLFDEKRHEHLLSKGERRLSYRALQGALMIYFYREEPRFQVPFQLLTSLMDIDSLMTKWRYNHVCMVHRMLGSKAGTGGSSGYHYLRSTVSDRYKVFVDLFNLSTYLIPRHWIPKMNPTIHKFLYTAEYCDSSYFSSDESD

cells = details: Mus musculus, Lung cancer cell line, 24 h
[26] = Anti-tumor efficacy against mouse LLC cells implanted in C57BL/6 mouse assessed as tumor growth inhibition at 200 mg/kg, po bid treated for 21 days relative to control; type: functional; details: Lewis lung carcinoma, 504 h, time 21 day, read-out: TGI
[27] = Half life in Sprague-Dawley rat at 5 mg/kg, iv by LC-MS/MS analysis; type: ADME, organism-based; details: in vivo
[28] = Half life in Sprague-Dawley rat at 25 mg/kg, po by LC-MS/MS analysis; type: ADME, organism-based; details: in vivo
[29] = Toxicity in C57BL/6 mouse implanted with mouse LLC cells assessed as liver function by measuring change in total protein level at 100 to 200 mg/kg, po bid treated for 21 days […]; type: organism-based, Lewis lung carcinoma; details: in vivo, 504 h, dose 100-200 mg/kg, time 21 day
[30] = AUC (0 to infinity) in Sprague-Dawley rat at 25 mg/kg, po by LC-MS/MS analysis; type: ADME, organism-based; parameters: dose 25 mg/kg, route po; details: in vivo
[31] = Toxicity in C57BL/6 mouse implanted with mouse LLC cells assessed as pathological changes in spleen at 100 to 200 mg/kg, po bid treated for 21 days by H and E staining assay; type: organism-based, Lewis lung carcinoma; details: in vivo, 504 h, dose 100-200 mg/kg, time 21 day
[32] = Toxicity in C57BL/6 mouse implanted with mouse LLC cells assessed as liver function by measuring change in AST level at 100 to 200 mg/kg, po bid treated for 21 days […]; type: organism-based, Lewis lung carcinoma; details: in vivo, 504 h, dose 100-200 mg/kg, time 21 day

CCNC(=O)Nc1nonc1/C(=N/O)Nc1ccc(F)c(Br)c1
Cmax [1]: 1690 ng/mL
Activity [2]: Non-Toxic
IC50 (HeLa): 46.1 µM
bioavailability [3]: 16.8%
IC50 (HCT-116): 19.6 µM
efflux ratio at 2 h (in vitro): 0.58
Activity [4]: Non-Toxic
AUC(0-t) [5]: 2220 ng·h/mL
clearance [6]: 32.3 mL/min/kg
Papp B→A at 2 h [7]: 22.6 ×10⁻⁶ cm/s
Tmax [8]: 1.98 min
IC50 [9]: 0.0176 µM
Activity [10]: Non-Toxic
Tmax [11]: 1 h
inhibition in vivo at 100 mg/kg [12]: 41.5%
Activity [13]: Non-Toxic
inhibition [14]: inactive
AUC(0-inf) [15]: 2690 ng·h/mL
Cmax [16]: 10000 ng/mL
AUC(0-t) [17]: 2640 ng·h/mL
Activity [18]: Non-Toxic
Vd [19]: 4.01 L/kg
IC50 (CT26): 34.9 µM
IC50 [20]: 0.0674 µM
Activity [21]: Non-Toxic
Activity [22]: Non-Toxic
Activity [23]: Non-Toxic
Papp A→B at 2 h [24]: 38.6 ×10⁻⁶ cm/s
inhibition [25]: inactive
IC50 (cells): > 50 µM
inhibition in vivo at 200 mg/kg [26]: 53.1%
half-life [27]: 1.62 h
half-life [28]: 1.31 h
Activity [29]: Non-Toxic
AUC(0-inf) [30]: 2250 ng·h/mL
Activity [31]: Non-Toxic
Activity [32]: Non-Toxic
